pIC50: −log10 of the molar value.
Target: human h-PGDS (Homo sapiens, UniProt O60760)
Test: Enzyme Immunoassay (EIA) method, inhibition of hematopoietic PGD2 synthase
Format: biochemical
Conditions: EIA assay, PGD2 formed from PGH2 by human h-PGDS
Experimental: Assay 2: Enzyme Immunoassay (EIA) Method
• a. Preparation of 0.1M K2HPO4/KH2PO4 buffer (pH 7.4) • Prepare 0.1 M KH2PO4 from 1M KH2PO4 (Sigma, Cat# P-8709) • Prepare 0.1 M K2HPO4 from powder of K2HPO4 (Fisher, BP363-500) • Mix 0.1 M K2HPO4 with 0.1 M KH2PO4 to adjust pH to 7.4. • b. Preparation of 0.5% γ-globulin • Add 0.1 g of γ-globulin (Sigma, Cat# G-5009) to 20 mL 0.1 M K2HPO4/KH2PO4 buffer (pH 7.4) and make 1-mL/vial aliquots and store in −80° C. • c. Preparation of 100 mM GSH • Add 307 mg of GSH (Sigma, Cat# G-6529) to 10 mL 0.1 M K2HPO4/KH2PO4 buffer (pH 7.4) and store at −80° C. • d. Preparation of Reaction buffer: • 198 mL of 0.1M K2HPO4/KH2PO4 buffer (pH 7.4) • 2 mM GSH—Prepared from 100 mM GSH • 0.4 g Glycerol • 2 mL of 0.5% γ-globulin • Add 0.4 g of glycerol and 2 mL of 0.5% γ-globulin to 198 mL of 0.1 M K2HPO4/KH2PO4 • buffer (pH7.4). • Add 0.4 mL of 100 mM GSH to 19.6 mL reaction buffer before the assay (enough for two 96-well plates). • e. Preparation of FeCl2/citric acid stopping solution: (8 mg/mL FeCl2, 0.1 M citric acid) • Add 40 mg fresh FeCl2 (IGN, Cat# 158046) to 5 mL 0.1 M citric acid (Sigma, Cat# C0759). • f. Preparation of MOX reagent: • 10% EtOH—Add 1 mL of EtOH to 9 mL of ultra pure H2O • Dissolve 0.1 g of methoxyl amine (Cayman, Cat# 400036/) in 10% EtOH (10 mL). • Add 0.82 g of sodium acetate (Cayman, Cat#400037) to MOX solution and dissolve. II. Materials and Method • Dimethylsulfoxide (DMSO; Sigma; Cat# D2650) • Prostaglandin D2-MOX express EIA kit (Caymen Chemical, Catalog No. 500151)
Before the assay, cool down 10 mL of acetone in polypropylene tubes and empty 96 well plates in ice. All the procedures except compound dilution are performed on ice.
• 1. Dilute compound in DMSO
• 2. Dilute 2 μL of each above concentration of compound to 38 μL of reaction buffer in 96-well plates and mix. IV. Enzyme and Substrate Solution Preparation • 1 Preparation of 0.39 ng/μL enzyme solution (0.35 ng/μL at final after compound addition). • Mix 4 μL of 4 mg/mL human h-PGDS with 396 μL of reaction buffer (to give enzyme concentration 40 μg/mL). Add 46.8 μL of 40 μg/mL h-PGDS to 4.753 mL of reaction buffer to give a total volume of 4.8 mL • 2. Preparation of Substrate Solution (PGH2): Add 0.375 mL of 0.1 mg/mL of PGH2 to 1.625 mL acetone. V. Enzyme Reaction: • 1. Add 60 μL of enzyme solution to compound well and positive control (without compound) in U-bottom polypropylene plate on ice. • 2. Add 60 μL of reaction buffer and 6.6 μL of 5% DMSO in reaction buffer into negative control wells in the plate. • 3. Add 6.6 μL of diluted compound in reaction buffer to the compound wells and mix. • 4. Add 6.6 μL of 5% DMSO in reaction buffer to the positive control well. • 5. Incubate the plate in ice for at least 30 min. • 6. Add 20 μL of substrate (PGH2) solution to compound, negative and positive control wells in the U-bottom 96 well plate on ice. • 7. Dry the plate in cold room for about 25-28 min. • 8. Pipette 45 μL of enzyme solution (above) into 96-wells with dried PGH2 and mix 3 times. Incubate on the ice for 1 min. • 9. Add 45 μL of FeCl2 solution into each wells and mix. • 10. Add 90 μL of MOX solution and mix. • 11. Incubate for 30 min at 60° C. • 12. Dilute the samples 2500× with EIA buffer. VI. EIA Assay • Perform the assay according to the procedure in EIA kit provided by Cayman. Total PGD2 levels (pg/mL) were determined in the samples by EIA kits (Caymen Chemical, Catalog No. 500151) Calculate Amount of PGD2 as Below • Calculated % Positive control according to the equation below; % Positive control=(Compound value−Negative control)/(Positive value−Negative control value)×100. […]

Chain of human h-PGDS (O60760 whole entry): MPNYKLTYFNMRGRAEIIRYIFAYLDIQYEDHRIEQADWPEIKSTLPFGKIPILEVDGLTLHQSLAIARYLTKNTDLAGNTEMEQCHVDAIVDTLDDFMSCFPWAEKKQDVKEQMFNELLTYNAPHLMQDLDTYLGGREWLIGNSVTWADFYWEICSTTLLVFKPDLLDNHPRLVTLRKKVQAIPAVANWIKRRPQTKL

Row | SMILES | pIC50
1 | O=C(NN1CCc2ccccc21)c1cnc(-c2ccccn2)nc1 [Example 103, 2-Pyridin-2-yl-pyrimidine-5-carboxylic acid (2,3-dihydro-indol-1-yl)-amide] | 8.52
2 | O=C(Nn1ccc2ccccc21)c1cnc(-c2ccccn2)nc1 [Example 104, 2-Pyridin-2-yl-pyrimidine-5-carboxylic acid indol-1-yl-amide] | 8.35
3 | O=C(Nn1ccc2ccccc21)c1cnc(-c2cccc(F)c2)nc1 [Example 105, 2-(3-Fluoro-phenyl)-pyrimidine-5-carboxylic acid indol-1-yl-amide] | 8.30
4 | Cc1nc(-c2cccc(F)c2)ncc1C(=O)NN1CCc2ccccc21 [Example 106, 2-(3-Fluoro-phenyl)-4-methyl-pyrimidine-5-carboxylic acid (2,3-dihydro-indol-1-yl)-amide] | 7.64
5 | Cc1cc2ccccc2n1NC(=O)c1cnc(-c2cccc(F)c2)nc1 [Example 108, 2-(3-Fluoro-phenyl)-pyrimidine-5-carboxylic acid (2-methyl-indol-1-yl)-amide] | 8.22
6 | Cc1nc(-c2cccc(F)c2)ncc1C(=O)Nn1ccc2ccccc21 [Example 109, 2-(3-Fluoro-phenyl)-4-methyl-pyrimidine-5-carboxylic acid indol-1-ylamide] | 8.00
7 | Cc1nc(-c2ccccn2)ncc1C(=O)NN1CCc2ccccc21 [Example 110, 4-Methyl-2-pyridin-2-yl-pyrimidine-5-carboxylic acid (2,3-dihydro-indol-1-yl)-amide] | 8.52
8 | Cc1nc(-c2ccccn2)ncc1C(=O)Nn1ccc2ccccc21 [Example 111, 4-Methyl-2-pyridin-2-yl-pyrimidine-5-carboxylic acid indol-1-ylamide] | 8.30
9 | CS(=O)(=O)c1ccc2ccn(NC(=O)c3cnc(-c4cccc(F)c4)nc3)c2c1 [Example 113, 2-(3-Fluoro-phenyl)-pyrimidine-5-carboxylic acid (6-methanesulfonyl-indol-1-yl)-amide] | 8.10
10 | O=C(Nn1ccc2ncccc21)c1cnc(-c2cccc(F)c2)nc1 [Example 118, 2-(3-Fluoro-phenyl)-pyrimidine-5-carboxylic acid pyrrolo[3,2-b]pyridin-1-ylamide] | 7.74
11 | COc1ccccc1-c1ncc(C(=O)NN2CC(C)=NNC2=O)cn1 [Example 120, 2-(2-Methoxy-phenyl)-pyrimidine-5-carboxylic acid (6-methyl-3-oxo-2,5-dihydro-3H-[1,2,4]triazin-4-yl)-amide] | 6.70
12 | Cc1nc(-c2cccc(F)c2)ncc1C(=O)Nn1ccc2cccnc21 [Example 122, 2-(3-Fluoro-phenyl)-4-methyl-pyrimidine-5-carboxylic acid pyrrolo[2,3-b]pyridin-1-ylamide] | 7.92

Second part, the compound after the results:

Row | pIC50 | SMILES
13 | 7.77 | Cc1nc(-c2ccccn2)ncc1C(=O)Nn1ccc2cc(F)ccc21 [Example 123, 4-Methyl-2-pyridin-2-yl-pyrimidine-5-carboxylic acid (5-fluoro-indol-1-yl)-amide]
14 | 7.74 | O=C(Nn1ccc2cc(F)ccc21)c1cnc(-c2ccccn2)nc1 [Example 124, 2-Pyridin-2-yl-pyrimidine-5-carboxylic acid (5-fluoro-indol-1-yl)-amide]
15 | 7.89 | Cc1nc(-c2ccccn2)ncc1C(=O)Nn1ccc2ncccc21 [Example 127, 4-Methyl-2-pyridin-2-yl-pyrimidine-5-carboxylic acid pyrrolo[3,2-b]pyridin-1-ylamide]
16 | 7.55 | Cc1nc(-c2cccc(F)c2)ncc1C(=O)Nn1ccc2ccncc21 [Example 128, 2-(3-Fluoro-phenyl)-4-methyl-pyrimidine-5-carboxylic acid pyrrolo[2,3-c]pyridin-1-ylamide]
17 | 7.85 | Cc1nc(-c2cccnc2)ncc1C(=O)Nn1ccc2ncccc21 [Example 130, 4-Methyl-2-pyridin-3-yl-pyrimidine-5-carboxylic acid pyrrolo[3,2-b]pyridin-1-ylamide]
18 | 7.72 | Cc1nc(-c2cccc(F)c2)ncc1C(=O)Nn1ccc2cc(F)ccc21 [Example 132, 2-(3-Fluoro-phenyl)-4-methyl-pyrimidine-5-carboxylic acid (5-fluoro-indol-1-yl)-amide]
19 | 8.22 | COc1ccc2c(ccn2NC(=O)c2cnc(-c3cccc(F)c3)nc2C)c1 [Example 133, 2-(3-Fluoro-phenyl)-4-methyl-pyrimidine-5-carboxylic acid (5-methoxy-indol-1-yl)-amide]
20 | 7.68 | CC1=NNC(=O)N(NC(=O)c2cnc(-c3cccc(O)c3)nc2)C1 [Example 154, 2-(3-Hydroxy-phenyl)-pyrimidine-5-carboxylic acid (6-methyl-3-oxo-2,5-dihydro-3H-[1,2,4]triazin-4-yl)-amide]
21 | 8.35 | Cc1nc(-c2ncccn2)ncc1C(=O)Nn1cc(C)c2cc(F)ccc21 [Example 157, 4-Methyl-[2,2′]bipyrimidinyl-5-carboxylic acid (5-fluoro-3-methyl-indol-1-yl)-amide]
22 | 8.10 | Cc1nc(-c2cccc(F)c2)ncc1C(=O)Nn1cc(C(N)=O)c2cc(F)ccc21 [Example 162, 5-Fluoro-1-{[2-(3-fluoro-phenyl)-4-methyl-pyrimidine-5-carbonyl]-amino}-1H-indole-3-carboxylic acid amide]
23 | 8.15 | Cc1nc(-c2cccc(F)c2)ncc1C(=O)Nn1cc(C(C)(C)C(=O)O)c2cc(F)ccc21 [Example 164, 2-(5-Fluoro-1-{[2-(3-fluoro-phenyl)-4-methyl-pyrimidine-5-carbonyl]-amino}-1H-indol-3-yl)-2-methyl-propionic acid]
24 | 8.30 | Cc1nc(-c2nccs2)ncc1C(=O)Nn1cc(CCC(C)(C)O)c2cc(F)ccc21 [Example 172, 4-Methyl-2-thiazol-2-yl-pyrimidine-5-carboxylic acid [5-fluoro-3-(3-hydroxy-3-methyl-butyl)-indol-1-yl]-amide]
25 | 8.10 | CCc1cn(NC(=O)c2cnc(-c3ncccn3)nc2C)c2ccc(C(F)(F)F)cc12 [Example 176, 4-Methyl-[2,2′]bipyrimidinyl-5-carboxylic acid (3-ethyl-5-trifluoromethyl-indol-1-yl)-amide]
26 | 7.80 | Cc1nc(-c2cccc(F)c2)ncc1C(=O)NN(c1ccccc1)c1ccccc1 [Example 190, 2-(3-Fluoro-phenyl)-4-methyl-pyrimidine-5-carboxylic acid N′,N′-diphenyl-hydrazide]
27 | 8.15 | CCc1cn(NC(=O)c2cnc(-c3cccc(F)c3)nc2C)c2cnccc12 [Example 195, 2-(3-Fluoro-phenyl)-4-methyl-pyrimidine-5-carboxylic acid (3-ethyl-pyrrolo[2,3c]pyridin-1-yl)-amide]
28 | 8.70 | Cc1nc(-c2cccc(F)c2)ncc1C(=O)Nn1cc(C)c2ncccc21 [Example 197, 2-(3-Fluoro-phenyl)-4-methyl-pyrimidine-5-carboxylic acid (3-methyl-pyrrolo [32-b]pyridin-1-yl)-amide]

Source: patent publication US8258130B2 (Sanofi, priority 2007, dated 2012)
